Assay results: ChEMBL document CHEMBL1201862, “PubChem BioAssay data set” (2004)
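Interpolation was linear, between the two tested concentrations surrounding the appropriate level; five concentrations were tested over 48 hours in 96-well plates. Abbreviation: GI50, concentration required for 50% inhibition of growth.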 Active and inactive are the calls of the source. No stated cut-off is given here; in the data, active = GI50 up to about 1.1 µM and inactive = higher.

Key:
Assay in all cases: NCI tumour cell line growth inhibition, 48 h
HOP-92 = test system: HOP-92
TK-10 = test system: TK-10
Malme-3M = test system: Malme-3M
HCC 2998 = test system: HCC 2998
SR = test system: SR
Hs-578T = test system: Hs-578T
OVCAR-3 = test system: OVCAR-3
MDA-N = test system: MDA-N
SW-620 = test system: SW-620
MCF7 = test system: MCF7
ACHN = test system: ACHN
LOX IMVI = test system: LOX IMVI
OVCAR-5 = test system: OVCAR-5
SF-295 = test system: SF-295
SF-268 = test system: SF-268
OVCAR-8 = test system: OVCAR-8
EKVX = test system: EKVX
MDA-MB-435 = test system: MDA-MB-435
UO-31 = test system: UO-31
PC-3 = test system: PC-3

Measured: GI50

Cc1cc2c(cc1C)C(=O)/C(=N/Nc1ccc(F)cc1)CCO2
inactive: HOP-92 > 100 µM | TK-10 > 100 µM | Malme-3M 37 µM | HCC 2998 > 100 µM | SR > 100 µM | Hs-578T > 100 µM | OVCAR-3 > 100 µM | MDA-N > 100 µM | SW-620 > 100 µM | MCF7 > 100 µM | ACHN > 100 µM | LOX IMVI 65.8 µM | OVCAR-5 > 100 µM | SF-295 27.1 µM | SF-268 > 100 µM | OVCAR-8 > 100 µM | EKVX > 100 µM | MDA-MB-435 > 100 µM | UO-31 > 100 µM | PC-3 > 100 µM

Cc1cc(C)nc(NS(=O)(=O)c2ccc(Nc3c4ccccc4nc4ccc(C(=O)Nc5ccc(S(=O)(=O)N=C(N)N)cc5)cc34)cc2)n1
inactive: HOP-92 26 µM | TK-10 > 100 µM | Malme-3M 30.7 µM | HCC 2998 > 100 µM | SR 44.6 µM | Hs-578T > 100 µM | OVCAR-3 43.4 µM | MDA-N > 100 µM | SW-620 48.4 µM | MCF7 23.2 µM | ACHN > 100 µM | LOX IMVI 17 µM | OVCAR-5 > 100 µM | SF-295 > 100 µM | SF-268 69.5 µM | OVCAR-8 > 100 µM | EKVX > 100 µM | MDA-MB-435 48.4 µM | UO-31 82.4 µM | PC-3 > 100 µM

COC(=O)CNC(=O)C(CSC(=O)OCC1c2ccccc2-c2ccccc21)NC(=O)CCC(NC(=O)OCC1c2ccccc2-c2ccccc21)C(=O)OC (stereo not given)
inactive: HOP-92 13.5 µM | TK-10 36.7 µM | Malme-3M 25.7 µM | HCC 2998 21.2 µM | SR 12.6 µM | Hs-578T 28.4 µM | OVCAR-3 18.1 µM | MDA-N 18.8 µM | SW-620 55.2 µM | MCF7 18.5 µM | ACHN 55.1 µM | LOX IMVI 3.27 µM | OVCAR-5 25.6 µM | SF-295 17.4 µM | SF-268 21.3 µM | OVCAR-8 16.8 µM | EKVX 54.3 µM | MDA-MB-435 25.7 µM | UO-31 18.7 µM | PC-3 30.8 µM

CC1=C(C)C(=O)O[C@@H]([C@](C)(O)[C@]2(O)CC[C@@]3(O)[C@@H]4C[C@H](O)[C@]5(O)[C@@H](O)C=CC(=O)[C@]5(C)[C@H]4CC[C@]23C)C1
inactive: HOP-92 > 100 µM | TK-10 > 100 µM | Malme-3M > 100 µM | HCC 2998 > 100 µM | SR 31.3 µM | Hs-578T > 100 µM | OVCAR-3 > 100 µM | MDA-N 93.1 µM | SW-620 > 100 µM | MCF7 46.2 µM | ACHN > 100 µM | LOX IMVI 58.5 µM | OVCAR-5 > 100 µM | SF-295 > 100 µM | SF-268 > 100 µM | OVCAR-8 > 100 µM | EKVX > 100 µM | MDA-MB-435 87.9 µM | UO-31 > 100 µM | PC-3 > 100 µM

COc1ccc2c(c1)CC[C@@H]1C2CC[C@]2(C)OC(=O)CCC12 (stereo not given in full)
inactive: HOP-92 13 µM | TK-10 34.2 µM | Malme-3M 15.7 µM | HCC 2998 > 100 µM | SR 5.12 µM | Hs-578T 14.4 µM | OVCAR-3 11.6 µM | MDA-N 20.3 µM | SW-620 10.7 µM | MCF7 15 µM | ACHN 50.8 µM | LOX IMVI 6.67 µM | OVCAR-5 13.3 µM | SF-295 18.3 µM | SF-268 12.1 µM | OVCAR-8 14 µM | EKVX 7.73 µM | MDA-MB-435 26.5 µM | UO-31 17.9 µM | PC-3 12.6 µM

COC(=O)[C@@H]1C2OC(C)(C)OC2CN1C(=O)OCc1ccccc1 (stereo not given in full)
inactive: HOP-92 > 100 µM | TK-10 > 100 µM | Malme-3M > 100 µM | HCC 2998 > 100 µM | SR > 100 µM | Hs-578T > 100 µM | OVCAR-3 > 100 µM | MDA-N > 100 µM | SW-620 > 100 µM | MCF7 > 100 µM | ACHN > 100 µM | LOX IMVI > 100 µM | OVCAR-5 > 100 µM | SF-295 > 100 µM | SF-268 > 100 µM | OVCAR-8 > 100 µM | EKVX > 100 µM | MDA-MB-435 > 100 µM | UO-31 > 100 µM | PC-3 > 100 µM
